Laboratory results from patent publication US10961233B2 (LIFEARC, priority 2016, dated 2021).
pEC50, pIC50: −log10 of the molar value.

What was measured:
WT full length PAICS = WT full length PAICS (Homo sapiens (Human), UniProt P22234); assay: Biochemical assay to measure PAICS activity (Transcreener ADP2 FI); conditions: SAICAR synthetase reaction, ADP detection, 30 min pre-incubation
Excerpt: Biochemical Assay to Measure PAICS Activity
The biochemical assay was used to measure PAICS SAICAR synthetase-mediated conversion of CAIR, aspartic acid and ATP to SAICAR, ADP and inorganic phosphate (Pi), post-AIR/CAIR equilibration (see FIG. 3). This was achieved by detecting the ADP generated during the reaction, using Bellbrook Lab's Transcreener ADP^2 FI assay. An increase in the fluorescence intensity is directly proportional to the amount of PAICS activity.
The Transcreener ADP^2 FI assay is a homogeneous competitive displacement fluorescence intensity assay which uses direct immunodetection of ADP. Displacement of the tracer by ADP causes an increase in the fluorescence at excitation 590 nm and emission 617 nm (FIG. 3).
5 μl WT full length PAICS (final assay concentration, fac, 2.5 nM) in basic buffer, added to black, non-binding, 384-well plates (Corning #3575), columns 1 to 22. 5 μl basic buffer was added to columns 23+24 (negative control). PAICS stock at 31.9 μM from the PI's lab (Steve Firestine). Basic buffer contained 50 mM Tris-HCl pH8 and 0.5 mM EDTA, fac.
1 μl compound in 100% DMSO added per well, or 1 μl 100% DMSO to positive controls (columns 1+2) and negative controls (columns 23+24). Final assay top concentration of compound either 1 mM or 30-μM, serially diluted with half-log dilutions across the plate in duplicate (one 10-point concentration response curve across wells 3 to 12, another across 13 to 22). Compounds pre-incubated with PAICS enzyme for 30 mins at RT. 2 μl CAIR added (fac 10 μM) in basic buffer plus 25 mM MgCl2 and 50 mM KHCO3 fac to all wells. CAIR stock 50 mM from Steve Firestine's lab. 1 hr RT incubation for AIR-CAIR equilibration. NB: ˜50% CAIR is decarboxylated during equilibration therefore 5 μM remains for the synthetase reaction.
2 μl ATP/aspartic acid added (fac 30 μM/180 μM) in reaction buffer to all wells. 30 mins RT incubation for appropriate level of ATP turnover. Reaction buffer contained basic buffer plus 10 mM DTT, 0.01% BSA and 0.01% Brij 35, fac.
10 μl ADP detection reagent added to all wells (as per instructions, Transcreener ADP^2 FI kit, BellBrook Labs #3013-10K). Incubation for 1 h at RT to allow antibody equilibration. Fluorescence intensity determined using a Tecan Safire2 (excitation at 590 nm, emission at 617 nm).

[1] = system: LM2 and MDA-MB-231 breast cancer cell lines; assay: PAICS 2D cell proliferation assay (CellTiter-Glo viability, 72 h); format: cell-based; conditions: Homo sapiens; 72 h incubation; cell line not given
Protocol: PAICS 2D Cell Proliferation Assay
Frozen cryovial stocks of LM2 and MDA-MB-231 breast cancer cell lines were thawed and cultured in 4.5 g/L glucose DMEM (31966-047, Invitrogen) supplemented with 10% Fetal Bovine Serum (10500-064, Invitrogen) until confluent in a T175 flask. Cells were incubated at 37° C. with 5% CO2 in a humidified incubator.
Cells were collected from T175 flasks by washing with PBS (10010-056, Invitrogen) and dissociated using Accutase (A6964, Sigma Aldrich). This was followed by centrifuging (1200 rpm, 5 min) and resuspending the cells in 10 ml of media containing 1% penicillin/streptomycin (15140-122, Invitrogen). Cells were counted by trypan blue exclusion method using an automated cell counter (Cellometer) and diluted to a concentration of 40,000/ml. 1000 cells were then seeded into 384-well white-walled plates (Corning, 3707) in a volume of 25 μl. Plates were Incubated overnight at 37° C. with 5% CO2.
After 24 hours, PAICS compounds were added onto the assay plates using an HP D300 Digital Dispenser (Hewlett Packard). 10 mM stocks were used and dispensed as a 10 point concentration response curve (CRC) ½ log dilution series with a final top concentration of 100 μM. Controls were added onto each plate: positive controls included Staurosporine CRC (100 μM stock dispensed as a 10 point CRC ½ log dilution series with a final top concentration of 1 μM) and PAICS compound MRT00211919 (10 mM stock dispensed as a 10 point CRC ½ log dilution series with a final top concentration of 100 μM); a high control of Staurosporine (0.1 μM (LM2), 0.316 μM (MDA-MB-231) FAC) and a low control of media containing 1% DMSO. A final concentration of 1% DMSO was then added across the plates for normalisation. Following compound addition, assay plates were incubated for 72 hours at 37° C. with 5% CO2.
Day 5—Cytotoxicity and Cell Viability Assays
After 72 h incubation, dead and viable cells were measured in each assay plate. Cytotoxicity was assessed through fluorescent DNA staining using the CellTox™ Green Cytotoxicity Assay kit (G8743, Promega) following the manufacturer's multiplexing protocol. Impaired cell membrane integrity results in the access of dye to stain DNA allowing quantification of dead cells. Cell viability was determined following ATP quantification using the CellTiter-Glo® Luminescent Cell Viability Assay kit (G7572, Promega) following the manufacturer's protocol. ATP released from lysed cells allowed for the generation of a signal proportional to the number of cells present in the well. All endpoint reads were performed using the PheraSTAR Plus (BMG Labtech). Data is expressed as % viable cells and % dead cells against controls (mean±SEM of duplicate curves).

Chain of WT full length PAICS (P22234 whole entry): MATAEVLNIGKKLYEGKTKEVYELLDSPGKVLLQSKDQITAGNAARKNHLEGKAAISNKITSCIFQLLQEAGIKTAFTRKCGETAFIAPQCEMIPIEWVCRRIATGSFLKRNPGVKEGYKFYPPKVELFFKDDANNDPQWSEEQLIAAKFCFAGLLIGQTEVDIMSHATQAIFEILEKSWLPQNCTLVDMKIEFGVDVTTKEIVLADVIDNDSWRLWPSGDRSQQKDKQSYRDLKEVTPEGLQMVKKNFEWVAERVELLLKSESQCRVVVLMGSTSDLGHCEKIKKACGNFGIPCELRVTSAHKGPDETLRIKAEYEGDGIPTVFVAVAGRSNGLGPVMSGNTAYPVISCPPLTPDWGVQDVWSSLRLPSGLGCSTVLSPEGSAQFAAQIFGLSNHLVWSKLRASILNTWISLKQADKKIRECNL

SMILES | pIC50 (WT full length PAICS) | pEC50 [1]
CN1CC(OC(=O)N2CCN(c3ccc(Cl)c(NC(=O)c4coc(N)n4)c3)CC2)C1 [Example 34, 1-Methylazetidin-3-yl 4-(3-{[(2-amino-1,3-oxazol-4-yl)carbonyl]amino}-4-chlorophenyl)piperazine-1-carboxylate] | 7.00 to 7.60 | 6.00 to 6.30
Nc1nc(C(=O)Nc2cc(N3CCN(C(=O)OCCNC4CC4)CC3)ccc2Cl)co1 [Example 35, 2-(Cyclopropylamino)ethyl 4-(3-{[(2-amino-1,3-oxazol-4-yl)carbonyl]amino}-4-chlorophenyl)piperazine-1-carboxylate] | 7.00 to 7.60 | 6.00 to 6.30
CN(C)CCCN1CCN(c2ccc(Cl)c(NC(=O)c3coc(N)n3)c2)CC1=O [Example 46, 2-Amino-N-(2-chloro-5-{4-[3-(dimethylamino)propyl]-3-oxopiperazin-1-yl}phenyl)-1,3-oxazole-4-carboxamide] | < 7.00 | 6.00 to 6.30
NCCS(=O)(=O)N1CCN(c2ccc(Cl)c(NC(=O)c3coc(N)n3)c2)CC1 [Example 53, 2-Amino-N-(5-(4-(2-aminoethylsulfonyl)piperazin-1-yl)-2-chlorophenyl) oxazole-4-carboxamide] | 7.00 to 7.60 | 6.00 to 6.30
CNCCS(=O)(=O)N1CCN(c2ccc(Cl)c(NC(=O)c3coc(N)n3)c2)CC1 [Example 56, 2-Amino-N-[2-chloro-5-(4-{[2-(methylamino)ethyl]sulfonyl}piperazin-1-yl)phenyl]-1,3-oxazole-4-carboxamide] | 7.60 to 8.00 | 6.30 to 6.60
CN(C)CCS(=O)(=O)N1CCN(c2ccc(Cl)c(NC(=O)c3coc(N)n3)c2)CC1 [Example 57, 2-Amino-N-[2-chloro-5-(4-{[2-(dimethylamino)ethyl]sulfonyl}piperazin-1-yl)phenyl]-1,3-oxazole-4-carboxamide] | 7.60 to 8.00 | 6.00 to 6.30
Nc1nc(C(=O)Nc2cc(N3CCN(S(=O)(=O)CCNC4CC4)CC3)ccc2Cl)co1 [Example 58, 2-Amino-N-[2-chloro-5-(4-{[2-(cyclopropylamino)ethyl]sulfonyl}piperazin-1-yl)phenyl]-1,3-oxazole-4-carboxamide] | 7.00 to 7.60 | 6.00 to 6.30
CN1CCN(CCS(=O)(=O)N2CCN(c3ccc(Cl)c(NC(=O)c4coc(N)n4)c3)CC2)CC1 [Example 59, 2-Amino-N-[2-chloro-5-(4-{[2-(4-methylpiperazin-1-yl)ethyl]sulfonyl}piperazin-1-yl)phenyl]-1,3-oxazole-4-carboxamide] | 7.60 to 8.00 | 6.30 to 6.60
CN(C)CCNCCS(=O)(=O)N1CCN(c2ccc(Cl)c(NC(=O)c3coc(N)n3)c2)CC1 [Example 60] | 7.60 to 8.00 | 6.30 to 6.60
CC(C)NCCS(=O)(=O)N1CCN(c2ccc(Cl)c(NC(=O)c3coc(N)n3)c2)CC1 [Example 61, 2-Amino-N-[2-chloro-5-(4-{[2-(propan-2-ylamino)ethyl]sulfonyl}piperazin-1-yl)phenyl]-1,3-oxazole-4-carboxamide] | 7.60 to 8.00 | 6.60 to 7.00
CN1CCC(NCCS(=O)(=O)N2CCN(c3ccc(Cl)c(NC(=O)c4coc(N)n4)c3)CC2)CC1 [Example 62, 2-Amino-N-{2-chloro-5-[4-({2-[(1-methylpiperidin-4-yl)amino]ethyl}sulfonyl)piperazin-1-yl]phenyl}-1,3-oxazole-4-carboxamide] | 7.60 to 8.00 | 6.30 to 6.60
CCNCCS(=O)(=O)N1CCN(c2ccc(Cl)c(NC(=O)c3coc(N)n3)c2)CC1 [Example 65, 2-Amino-N-[2-chloro-5-(4-{[2-(ethylamino)ethyl]sulfonyl}piperazin-1-yl)phenyl]-1,3-oxazole-4-carboxamide] | 7.60 to 8.00 | 6.60 to 7.00
CCCNCCS(=O)(=O)N1CCN(c2ccc(Cl)c(NC(=O)c3coc(N)n3)c2)CC1 [Example 66, 2-Amino-N-[2-chloro-5-(4-{[2-(propylamino)ethyl]sulfonyl}piperazin-1-yl)phenyl]-1,3-oxazole-4-carboxamide] | 7.60 to 8.00 | 6.60 to 7.00
CN(C)CCCS(=O)(=O)N1CCN(c2ccc(Cl)c(NC(=O)c3coc(N)n3)c2)CC1 [Example 68, 2-Amino-N-[2-chloro-5-(4-{[3-(dimethylamino)propyl]sulfonyl}piperazin-1-yl)phenyl]-1,3-oxazole-4-carboxamide] | 7.60 to 8.00 | 6.30 to 6.60

The remaining lines, values ahead:

pIC50 (WT full length PAICS) | pEC50 [1] | SMILES
7.60 to 8.00 | 6.00 to 6.30 | CN1CC(CN2CCN(c3ccc(Br)c(NC(=O)c4coc(N)n4)c3)CC2=O)C1 [Example 44]
7.60 to 8.00 | 6.30 to 6.60 | CN(C)CCN1CCN(c2ccc(Br)c(NC(=O)c3coc(N)n3)c2)CC1=O [Example 45]
> 8.00 | 6.60 to 7.00 | CN(C)CCS(=O)(=O)N1CCN(c2ccc(Br)c(NC(=O)c3coc(N)n3)c2)CC1 [Example 54, 2-Amino-N-[2-bromo-5-(4-{[2-(dimethylamino)ethyl]sulfonyl}piperazin-1-yl)phenyl]-1,3-oxazole-4-carboxamide]
> 8.00 | > 7.00 | CC(C)NCCS(=O)(=O)N1CCN(c2ccc(Br)c(NC(=O)c3coc(N)n3)c2)CC1 [Example 63]
> 8.00 | 6.60 to 7.00 | CN1CCC(NCCS(=O)(=O)N2CCN(c3ccc(Br)c(NC(=O)c4coc(N)n4)c3)CC2)CC1 [Example 64, 2-Amino-N-{2-bromo-5-[4-({2-[(1-methylpiperidin-4-yl)amino]ethyl}sulfonyl)piperazin-1-yl]phenyl}-1,3-oxazole-4-carboxamide]
> 8.00 | > 7.00 | Nc1nc(C(=O)Nc2cc(N3CCN(S(=O)(=O)CCCN4CCCC4)CC3)ccc2Br)co1 [Example 67, 2-Amino-N-[2-bromo-5-(4-{[3-(pyrrolidin-1-yl)propyl]sulfonyl}piperazin-1-yl)phenyl]-1,3-oxazole-4-carboxamide]
> 8.00 | > 7.00 | CCNCCCS(=O)(=O)N1CCN(c2ccc(Br)c(NC(=O)c3coc(N)n3)c2)CC1 [Example 70, 2-Amino-N-[2-bromo-5-(4-{[3-(ethylamino)propyl]sulfonyl}piperazin-1-yl)phenyl]-1,3-oxazole-4-carboxamide]
> 8.00 | 6.60 to 7.00 | CC(C)NCCCS(=O)(=O)N1CCN(c2ccc(Cl)c(NC(=O)c3coc(N)n3)c2)CC1 [Example 72, 2-Amino-N-[2-chloro-5-(4-{[3-(propan-2-ylamino)propyl]sulfonyl}piperazin-1-yl)phenyl]-1,3-oxazole-4-carboxamide]
